The record followed here is BindingDB's records for doi:10.1016/j.bmcl.2005.12.017 (Abbott Laboratories, 2006).

Structures are written as SMILES.

T1 sequence (P31749 139-480 S378A/S381A/T450D/S473D): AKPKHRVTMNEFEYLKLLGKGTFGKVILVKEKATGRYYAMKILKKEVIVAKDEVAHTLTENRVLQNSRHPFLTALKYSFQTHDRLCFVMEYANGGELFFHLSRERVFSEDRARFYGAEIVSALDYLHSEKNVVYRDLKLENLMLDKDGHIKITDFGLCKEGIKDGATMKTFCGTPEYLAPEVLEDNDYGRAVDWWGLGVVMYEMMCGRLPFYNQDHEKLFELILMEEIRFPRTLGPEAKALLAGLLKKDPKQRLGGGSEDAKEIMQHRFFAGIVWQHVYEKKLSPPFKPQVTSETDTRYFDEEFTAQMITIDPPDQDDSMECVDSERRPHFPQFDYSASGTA

One test concerns the target T1, RAC-alpha serine/threonine-protein kinase [139-480,S378A,S381A,T450D,S473D] (Homo sapiens, UniProt P31749, S378A/S381A/S473D/T450D).
T1 construct: 139-480
Description: Akt Kinase Assay.
Details: not given
The method, then:
The kinase assay uses His-Akt1 and a biotinylated peptide as substrate. The biotinylated peptides were immobilized on streptavidin-coated FLASH plates. After reaction, the 33P-phosphopeptide captured on the FLASH plates was measured with a TopCount Packard Instruments […] (Packard Instruments, Boston, MA).
What is called IC50 is the concentration that gives 50% inhibition. A low value points to higher potency. `N[C@H](COc1cncc(/C=C/c2ccnc(-n3ccc4ccccc43)c2)c1)Cc1c[nH]c2ccccc12` [1-{4-[(E)-2-{5-[(2S)-2-amino-3-(1H-indol-3-yl)propoxy]pyridin-3-yl}ethenyl]pyridin-2-yl}-1H-indole]: the IC50 worked out at 3340 nM. Still for that read-out and setting: to `N[C@H](COc1ccc(/C=C/c2ccncc2)cn1)Cc1ccccc1` [2-[(2S)-2-amino-3-phenylpropoxy]-5-[(E)-2-(pyridin-4-yl)ethenyl]pyridine] belongs 43000 nM; to `NCC(c1ccccc1)c1cncc(/C=C/c2ccncc2)c1` (configuration not stated) [2-phenyl-2-{5-[(E)-2-(pyridin-4-yl)ethenyl]pyridin-3-yl}ethan-1-amine], 284 nM. `N[C@H](COc1cncc(/C=C/c2ccncc2)c1)Cc1csc2ccccc12` [3-[(2S)-2-amino-3-(1-benzothiophen-3-yl)propoxy]-5-[(E)-2-(pyridin-4-yl)ethenyl]pyridine]: the IC50 is 142 nM. In the case of `COc1cc(/C=C/c2cncc(OC[C@@H](N)Cc3c[nH]c4ccccc34)c2)ccn1` [3-[(2S)-2-amino-3-({5-[(E)-2-(2-methoxypyridin-4-yl)ethenyl]pyridin-3-yl}oxy)propyl]-1H-indole], the IC50 is 2670 nM. As for `N[C@H](COc1cncc(/C=C/c2ccnc(Oc3ccccc3)c2)c1)Cc1c[nH]c2ccccc12` [3-[(2S)-2-amino-3-({5-[(E)-2-(2-phenoxypyridin-4-yl)ethenyl]pyridin-3-yl}oxy)propyl]-1H-indole], half-maximal inhibition (IC50) required 6450 nM. Consider `Cn1cc(C[C@H](N)COc2cncc(/C=C/c3ccncc3)c2)c2ccccc21` [3-[(2S)-2-amino-3-({5-[(E)-2-(pyridin-4-yl)ethenyl]pyridin-3-yl}oxy)propyl]-1-methyl-1H-indole], for which the half-inhibitory concentration (IC50) was 500 nM. Still for that read-out and setting: as for `N[C@H](COc1cncc(/C=C/c2ccnc(SCc3ccccc3)c2)c1)Cc1c[nH]c2ccccc12` [3-[(2S)-2-amino-3-({5-[(E)-2-[2-(benzylsulfanyl)pyridin-4-yl]ethenyl]pyridin-3-yl}oxy)propyl]-1H-indole], the figure is 3110 nM; as for `N[C@H](COc1cncc(/C=C/c2ccnc(Sc3ccccc3)c2)c1)Cc1c[nH]c2ccccc12` [3-[(2S)-2-amino-3-({5-[(E)-2-[2-(phenylsulfanyl)pyridin-4-yl]ethenyl]pyridin-3-yl}oxy)propyl]-1H-indole], 6350 nM. `N[C@H](COc1cccc(/C=C/c2ccncc2)n1)Cc1c[nH]c2ccccc12` [3-[(2S)-2-amino-3-({6-[(E)-2-(pyridin-4-yl)ethenyl]pyridin-2-yl}oxy)propyl]-1H-indole] had an IC50 of 23300 nM. `N[C@H](COc1cnc(Cl)c(/C=C/c2ccncc2)c1)Cc1c[nH]c2ccccc12` [3-[(2S)-2-amino-3-({6-chloro-5-[(E)-2-(pyridin-4-yl)ethenyl]pyridin-3-yl}oxy)propyl]-1H-indole] displayed an IC50 of 23 nM. On the same count and under the same terms, to `N[C@H](COc1cncc(/C=C/c2ccnc(NCc3ccccc3)c2)c1)Cc1c[nH]c2ccccc12` [4-[(E)-2-{5-[(2S)-2-amino-3-(1H-indol-3-yl)propoxy]pyridin-3-yl}ethenyl]-N-benzylpyridin-2-amine] belongs 147 nM.

Take `N[C@H](COc1cncc(/C=C/c2ccnc(NC3CC3)c2)c1)Cc1c[nH]c2ccccc12` [4-[(E)-2-{5-[(2S)-2-amino-3-(1H-indol-3-yl)propoxy]pyridin-3-yl}ethenyl]-N-cyclopropylpyridin-2-amine]: the IC50 turned out to be 69 nM.

As for `CCNc1cc(/C=C/c2cncc(OC[C@@H](N)Cc3c[nH]c4ccccc34)c2)ccn1` [4-[(E)-2-{5-[(2S)-2-amino-3-(1H-indol-3-yl)propoxy]pyridin-3-yl}ethenyl]-N-ethylpyridin-2-amine], half-maximal inhibition (IC50) required 163 nM. Molecule `CNc1cc(/C=C/c2cncc(OC[C@@H](N)Cc3c[nH]c4ccccc34)c2)ccn1` [4-[(E)-2-{5-[(2S)-2-amino-3-(1H-indol-3-yl)propoxy]pyridin-3-yl}ethenyl]-N-methylpyridin-2-amine] registered an IC50 of 176 nM. Molecule `Nc1cc(/C=C/c2cncc(OC[C@@H](N)Cc3c[nH]c4ccccc34)c2)ccn1` [4-[(E)-2-{5-[(2S)-2-amino-3-(1H-indol-3-yl)propoxy]pyridin-3-yl}ethenyl]pyridin-2-amine] registered an IC50 of 121 nM. On the same count and under the same terms, to `N[C@H](CCc1cnc(Cl)c(/C=C/c2ccncc2)c1)Cc1c[nH]c2ccccc12` [(2R)-4-{6-chloro-5-[(E)-2-(pyridin-4-yl)ethenyl]pyridin-3-yl}-1-(1H-indol-3-yl)butan-2-amine] belongs 198 nM; to `N[C@@H](Cc1ccccc1)C(=O)Nc1cncc(/C=C/c2ccncc2)c1` [(2S)-2-amino-3-phenyl-N-{5-[(E)-2-(pyridin-4-yl)ethenyl]pyridin-3-yl}propanamide], 3200 nM. With `N[C@H](CNc1cncc(/C=C/c2ccncc2)c1)Cc1c[nH]c2ccccc12` [N-[(2S)-2-amino-3-(1H-indol-3-yl)propyl]-5-[(E)-2-(pyridin-4-yl)ethenyl]pyridin-3-amine], the IC50 turned out to be 9.7 nM. Same read-out and setting: as for `N[C@H](CNc1cnc(Cl)c(/C=C/c2ccncc2)c1)Cc1c[nH]c2ccccc12` [N-[(2S)-2-amino-3-(1H-indol-3-yl)propyl]-6-chloro-5-[(E)-2-(pyridin-4-yl)ethenyl]pyridin-3-amine], the figure is 19 nM; as for `N[C@H](CNc1cnc(Cl)c(/C=C/c2ccncc2)c1)CC1CNc2ccccc21` (stereo partly drawn) [N-[(2S)-2-amino-3-(2,3-dihydro-1H-indol-3-yl)propyl]-6-chloro-5-[(E)-2-(pyridin-4-yl)ethenyl]pyridin-3-amine], 79 nM; as for `Brc1ccc(/C=C/CNCCOc2cncc(/C=C/c3ccncc3)c2)cc1` [[(2E)-3-(4-bromophenyl)prop-2-en-1-yl][2-({5-[(E)-2-(pyridin-4-yl)ethenyl]pyridin-3-yl}oxy)ethyl]amine], 32200 nM.

Regarding `CN(C)[C@H](COc1cncc(/C=C/c2ccncc2)c1)Cc1c[nH]c2ccccc12` [[(2S)-1-(1H-indol-3-yl)-3-({5-[(E)-2-(pyridin-4-yl)ethenyl]pyridin-3-yl}oxy)propan-2-yl]dimethylamine], the midpoint of inhibition, the IC50, lay at 1100 nM.

The test is the same for the next values; noted with them: pH 7.5; 22 °C.
As to `N[C@H](COc1cncc(/C=C/c2ccncc2)c1)C(c1ccccc1)c1ccccc1` [3-[(2S)-2-amino-3,3-diphenylpropoxy]-5-[(E)-2-(pyridin-4-yl)ethenyl]pyridine], the IC50 came to 6760 nM.

`N[C@H](COc1cncc(/C=C/c2ccncc2)c1)Cc1cccc2ccccc12` [3-[(2S)-2-amino-3-(naphthalen-1-yl)propoxy]-5-[(E)-2-(pyridin-4-yl)ethenyl]pyridine] had an IC50 of 324 nM. `N[C@H](COc1cncc(/C=C/c2ccncc2)c1)Cc1ccc2ccccc2c1` [3-[(2S)-2-amino-3-(naphthalen-2-yl)propoxy]-5-[(E)-2-(pyridin-4-yl)ethenyl]pyridine]: the IC50 was determined as 146 nM.

As to `N#Cc1cccc(C[C@H](N)COc2cncc(/C=C/c3ccncc3)c2)c1` [3-[(2S)-2-amino-3-({5-[(E)-2-(pyridin-4-yl)ethenyl]pyridin-3-yl}oxy)propyl]benzonitrile], the half-inhibitory concentration (IC50) is 320 nM. Take `N[C@H](COc1cncc(/C=C/c2ccncc2)c1)Cc1cccc(O)c1` [3-[(2S)-2-amino-3-({5-[(E)-2-(pyridin-4-yl)ethenyl]pyridin-3-yl}oxy)propyl]phenol]: the IC50 was 875 nM. The same measure, in the same setting: to `CC(C)[C@H](N)COc1cncc(/C=C/c2ccncc2)c1` [3-[(2S)-2-amino-3-methylbutoxy]-5-[(E)-2-(pyridin-4-yl)ethenyl]pyridine] belongs 19300 nM.

Molecule `N[C@@H](CCc1ccccc1)COc1cncc(/C=C/c2ccncc2)c1` [3-[(2S)-2-amino-4-phenylbutoxy]-5-[(E)-2-(pyridin-4-yl)ethenyl]pyridine] gave an IC50 of 8020 nM. Still for that read-out and setting: as for `C(=C\c1cncc(OC[C@@H]2CCN2)c1)/c1ccncc1` [3-[(2S)-azetidin-2-ylmethoxy]-5-[(E)-2-(pyridin-4-yl)ethenyl]pyridine], the figure is 10900 nM; as for `C(=C\c1cncc(OC[C@@H]2CCCN2)c1)/c1ccncc1` [3-[(E)-2-(pyridin-4-yl)ethenyl]-5-[(2S)-pyrrolidin-2-ylmethoxy]pyridine], 23900 nM.
